Measurements: PubChem BioAssay (NCI)
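Protocol summary: plate cells (96-well), add compound at 5 concentrations, incubate 48 h, interpolate endpoints linearly. TGI denotes the concentration required for complete inhibition of growth.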

How the values were obtained:
Test in all cases: inhibition of tumour cell growth, NCI panel, 48 h
HCT-15 colon = tested on: HCT-15 colon
UACC-257 melanoma = tested on: UACC-257 melanoma
MDA-MB-435 = tested on: MDA-MB-435
RXF 393 renal = tested on: RXF 393 renal
786-0 renal = tested on: 786-0 renal
SF-539 CNS = tested on: SF-539 CNS
HOP-62 NSCLC = tested on: HOP-62 NSCLC
EKVX NSCLC = tested on: EKVX NSCLC
NCI-H23 lung = tested on: NCI-H23 lung
A549 NSCLC = tested on: A549 NSCLC
SR leukemia = tested on: SR leukemia
SNB-19 CNS = tested on: SNB-19 CNS
K-562 leukemia = tested on: K-562 leukemia
CAKI-1 renal = tested on: CAKI-1 renal
MOLT-4 leukemia = tested on: MOLT-4 leukemia
SNB-75 CNS = tested on: SNB-75 CNS
SF-268 CNS = tested on: SF-268 CNS
OVCAR-5 ovarian = tested on: OVCAR-5 ovarian
SN12C renal = tested on: SN12C renal
ACHN renal = tested on: ACHN renal
HS 578T breast = tested on: HS 578T breast
SK-MEL-28 melanoma = tested on: SK-MEL-28 melanoma
BT-549 breast = tested on: BT-549 breast
SK-MEL-5 melanoma = tested on: SK-MEL-5 melanoma
IGROV1 ovarian = tested on: IGROV1 ovarian
NCI-H460 lung = tested on: NCI-H460 lung
RPMI-8226 leukemia = tested on: RPMI-8226 leukemia
OVCAR-8 ovarian = tested on: OVCAR-8 ovarian
UACC-62 melanoma = tested on: UACC-62 melanoma
MCF7 breast = tested on: MCF7 breast
SF-295 CNS = tested on: SF-295 CNS
LOX IMVI melanoma = tested on: LOX IMVI melanoma
OVCAR-4 ovarian = tested on: OVCAR-4 ovarian
COLO 205 colon = tested on: COLO 205 colon
TK-10 renal = tested on: TK-10 renal
NCI/ADR-RES ovarian = tested on: NCI/ADR-RES ovarian
A498 renal = tested on: A498 renal
SK-MEL-2 melanoma = tested on: SK-MEL-2 melanoma
HL-60(TB) leukemia = tested on: HL-60(TB) leukemia
U251 CNS = tested on: U251 CNS
MDA-MB-231 breast = tested on: MDA-MB-231 breast
HCC-2998 colon = tested on: HCC-2998 colon
SK-OV-3 ovarian = tested on: SK-OV-3 ovarian
KM12 colon = tested on: KM12 colon
HOP-92 NSCLC = tested on: HOP-92 NSCLC
M14 melanoma = tested on: M14 melanoma
PC-3 prostate = tested on: PC-3 prostate
HCT-116 colon = tested on: HCT-116 colon
UO-31 renal = tested on: UO-31 renal
T-47D breast = tested on: T-47D breast
DU-145 prostate = tested on: DU-145 prostate
NCI-H522 lung = tested on: NCI-H522 lung
NCI-H226 lung = tested on: NCI-H226 lung
OVCAR-3 ovarian = tested on: OVCAR-3 ovarian
SW-620 colon = tested on: SW-620 colon
HT29 colon = tested on: HT29 colon
CCRF-CEM leukemia = tested on: CCRF-CEM leukemia

Measured: TGI

COc1ccc(CCCNC(=O)c2cc(OC)c(OC)cc2CCO)cc1OC
not listed: CCRF-CEM leukemia
> 100 µM: all other assays above

OC(c1ccc(C(F)(F)F)cc1)C(F)(F)c1nc2ccccc2o1 (configuration not stated)
not listed: A549 NSCLC | OVCAR-5 ovarian | SN12C renal | A498 renal | NCI-H522 lung | OVCAR-3 ovarian
> 100 µM: all other assays above
